Measured values taken from patent US20100233241A1, “OPHTHALMIC DRUG DELIVERY SYSTEM AND APPLICATIONS” (VISTA SCIENTIFIC LLC, priority 2009, published 2010).

Legend:
[1] = ciprofloxacin drug release from ocular device in Purilens Plus buffer, UV spectroscopy; format: physicochemical
Experimental: The following details the method utilized to monitor ciprofloxacin drug release from an ocular device of this example. Solutions of ciprofloxacin, in a concentration range of 5 ppm to 1,000 ppm, were prepared in Purilens Plus buffer (Purilens Plus is a preservative-free pH-balanced saline solution manufactured by The Lifestyle Company). A UV scanning spectrophotometer was utilized to generate a calibration curve of peak absorbance (λmax=272 nm) versus concentration, in gm/100 ml, of ciprofloxacin.
A device from this example weighing between 100 and 150 mg was placed in a 4 ml vial. To the vial was added 3.0 ml of Purilens Plus buffer. After 24 hours at 37° C., the sample was removed and placed in another 4 ml vial and covered with 3.0 ml of fresh Purilens Plus buffer. The 24-hour release vial was capped, labeled and held for analysis. This procedure was repeated four more times to obtain 1-, 2-, 3-, 4- and 5-day release data. The sampling interval was then expanded to every 3 to 5 days and so on. The release study was carried out for a total of 60 days.
The drug release samples were analyzed by UV spectroscopy and absorbance readings converted to weight of drug via the calibration curve.

[2] = timolol drug release from ocular device in Unisol 4 buffer, UV spectroscopy; format: physicochemical; settings: Example 11 polymer matrix with dissolved timolol free base; release study 90 days, 37° C., Unisol 4 buffer (FIG. 16)
Experimental: The following details the method utilized to monitor timolol drug release from an ocular device of this example. Solutions of timolol maleate, in a concentration range of 5 ppm to 1,000 ppm, were prepared in Unisol® 4 buffer (Unisol® 4 is a preservative-free pH-balanced saline solution manufactured by Alcon Laboratories). A UV scanning spectrophotometer was utilized to generate a calibration curve of peak absorbance (λmax=294 nm) versus concentration, in gm/100 ml, of timolol maleate. A calibration curve for timolol free base was then generated. A device weighing between 100 and 150 mg was placed in a 4 ml vial. To the vial was added 2.0 ml of Unisol® 4 buffer. After 24 hours at 37° C., the sample was removed and placed in another 4 ml vial and covered with 2.0 ml of fresh Unisol® 4 buffer. The 24-hour release vial was capped, labeled and held for analysis. This procedure was repeated four more times to obtain 1-, 2-, 3-, 4- and 5-day release data. The sampling interval was then expanded to every 3 to 5 days and so on. The release study was carried out for a total of 90 days. The drug release samples were analyzed by UV spectroscopy and absorbance readings converted to weight of drug via the calibration curve. A plot of cumulative weight, in micrograms, of drug released versus time was generated.

Row | amount of ciprofloxacin released ([1]; 60 days release study, 37° C., Purilens Plus buffer, Example 12 hydrogel device, initial loading about 8.67 mg) [mg] | ciprofloxacin released, share of initial loading ([1]; in the 60 days, 4.74 mg of about 8.67 mg loading) [%] | Compound | timolol release from device [2]
1 | 4.74 | 55 | O=C(O)c1cn(C2CC2)c2cc(N3CCNCC3)c(F)cc2c1=O [ciprofloxacin] | –
2 | – | – | CC(C)(C)NC[C@H](O)COc1nsnc1N1CCOCC1 [timolol] | releases timolol in a controlled manner over several months
